Reference: paper PMC11602115 (Journal of Medicinal Chemistry, 2017)
Like-named read-outs stand apart in the source and are kept apart here.

What was measured:
[1] = biological target: T1, human DP1 receptor (Homo sapiens, UniProt Q13258); assay: HTRF cAMP assay, recombinant human DP1 receptor in CHO-K1 cells; format: cell-based; conditions: for Emax: CHO-K1, intrinsic activity relative to 1 μM PGD2, read-out: hDP1 % IA; for EC50: HTRF (cAMP) human DP1 receptor assay, mean of at least three determinations, read-out: EC50 hDP1; for DP1 % I.A: cAMP HTRF agonist assay (Gs), Table Sup2
T1 construct: expressed in transfected cells
T1 sequence (Q13258 1-359): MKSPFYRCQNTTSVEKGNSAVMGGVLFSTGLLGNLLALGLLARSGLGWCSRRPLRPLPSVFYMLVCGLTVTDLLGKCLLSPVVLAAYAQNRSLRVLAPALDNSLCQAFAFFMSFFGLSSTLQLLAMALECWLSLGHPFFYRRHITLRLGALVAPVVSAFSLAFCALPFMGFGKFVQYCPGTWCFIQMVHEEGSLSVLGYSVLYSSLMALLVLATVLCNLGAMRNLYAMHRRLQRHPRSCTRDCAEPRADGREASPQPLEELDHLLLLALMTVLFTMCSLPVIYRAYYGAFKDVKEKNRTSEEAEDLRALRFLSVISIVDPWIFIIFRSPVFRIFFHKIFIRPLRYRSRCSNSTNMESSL

[2] = Stability in human microsome preparations; format: in vitro ADME; conditions: incubation at 37 °C, human microsomes; read-out: human MS, T1/2
Text: Table 1 Screening Data for Selected Analogues ^a | column: human and rat MS, T1/2 (min) ^g

[3] = biological target: CYP 1A2 (Homo sapiens, UniProt P05177); assay: Cytochrome P450 inhibition, CYP1A2; format: in vitro ADME
[4] = biological target: CYP 3A4 (Homo sapiens, UniProt P08684); assay: Cytochrome P450 inhibition, CYP3A4; format: in vitro ADME
[5] = system: primary human pulmonary arterial smooth muscle cells; assay: HTRF cAMP assay in primary human pulmonary arterial smooth muscle cells; format: cell-based
Description: Additional In Vitro Assays […]
Compounds were also evaluated in HTRF cAMP assays using primary human pulmonary arterial smooth muscle cells (Cell Applications, Inc., #352Kq05a, or ThermoFisher/Gibco, #C0095C) using the same basic assay protocol outlined in the Experimental section. Cells were cultured as recommended by the suppliers, used at low passage and seeded into 384qwell assay plates at a density of 700q900 cell per well

[6] = biological target: EP2 (Homo sapiens, UniProt P43116); assay: cAMP HTRF agonist assay, EP2; format: cell-based; conditions: for agonist activity at EP2: HTRF cAMP functional assay
Text: Table Sup2: Data with some comparator compounds in functional assays. […]

[7] = biological target: T2, IP (Homo sapiens, UniProt P43119); assay: HTRF cAMP assay, recombinant human IP receptor stably expressed in CHO-K1 cells; format: cell-based; set-up: expressed in transfected cells
[8] = biological target: rat IP (Rattus norvegicus, UniProt P43253); assay: HTRF cAMP assay, recombinant rat IP receptor; format: cell-based; set-up: expressed in transfected cells; conditions: for EC50: HTRF (cAMP) rat IP receptor assay, mean of at least three determinations; for Emax: read-out: rIP % IA
[9] = biological target: T2, IP; assay: Recombinant human IP receptor cAMP assay after elimination of receptor reserve (transient CHO); format: cell-based; set-up: expressed in transfected cells; conditions: following elimination of receptor reserve
Text: Additional In Vitro Assays
To determine the potency and efficacy of compounds in cAMP assays in the absence of receptor reserve effects, the cDNA sequence of the human IP receptor was subqcloned into an expression plasmid containing a ubiquitin promoter in place of the more commonly used CMV promoter. The ubiquitin […]
level of receptor expression after transfection into a suitable cell line. This plasmid was transiently transfected into CHO cells using lipofectamine, following standard protocols. The quantity of transfected plasmid DNA was titrated down from 16 µg to 1 ng per transfection using empty vector as carrier DNA.

[10] = biological target: monkey IP; assay: Radioligand binding, monkey IP ([3H]-iloprost)
Description: CHO-K1 cells expressing recombinant IP receptors were harvested, washed with ice-cold phosphate buffered saline, pH 7.4 (PBS), and then centrifuged at 48 000g for 20 min at 4 °C. The resulting cell pellet was then resuspended in ice-cold PBS containing 20 mM HEPES, pH 7.4, and 0.1 mM EDTA, homogenized on ice using a Brinkman Polytron, and centrifuged (48 000g for 20 min at 4 °C). This resuspension and centrifugation process was repeated one further time. Crude membrane pellets were stored at −80 °C until used for radioligand binding assays.
Assay incubations were terminated by rapid filtration through PerkinElmer GF/C filtration plates pretreated with 0.3% PEI, under vacuum pressure using a 96-well Packard filtration apparatus, followed by multiple washes with ice-cold wash buffer (PBS containing 20 mM HEPES and 0.1 mM EDTA, pH 7.4). Plates were then dried at 45 °C for a minimum of 2 h. Finally, 25 μL of BetaScint scintillation cocktail was added to each well and plates were counted in a Packard TopCount scintillation counter. In each competition study, test compounds were dosed at 10 concentrations with triplicate determinations at each test concentration.

Chain of EP2 (P43116 whole entry): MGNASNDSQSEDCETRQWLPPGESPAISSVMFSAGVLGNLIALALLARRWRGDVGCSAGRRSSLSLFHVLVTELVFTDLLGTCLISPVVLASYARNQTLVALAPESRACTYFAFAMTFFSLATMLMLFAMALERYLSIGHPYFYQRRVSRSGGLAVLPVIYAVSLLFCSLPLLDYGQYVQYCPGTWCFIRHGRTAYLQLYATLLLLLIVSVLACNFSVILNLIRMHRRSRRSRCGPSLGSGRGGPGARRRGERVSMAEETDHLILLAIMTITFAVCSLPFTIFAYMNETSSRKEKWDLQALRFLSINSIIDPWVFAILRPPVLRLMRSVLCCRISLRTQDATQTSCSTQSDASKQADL
T2 sequence (P43119 whole entry): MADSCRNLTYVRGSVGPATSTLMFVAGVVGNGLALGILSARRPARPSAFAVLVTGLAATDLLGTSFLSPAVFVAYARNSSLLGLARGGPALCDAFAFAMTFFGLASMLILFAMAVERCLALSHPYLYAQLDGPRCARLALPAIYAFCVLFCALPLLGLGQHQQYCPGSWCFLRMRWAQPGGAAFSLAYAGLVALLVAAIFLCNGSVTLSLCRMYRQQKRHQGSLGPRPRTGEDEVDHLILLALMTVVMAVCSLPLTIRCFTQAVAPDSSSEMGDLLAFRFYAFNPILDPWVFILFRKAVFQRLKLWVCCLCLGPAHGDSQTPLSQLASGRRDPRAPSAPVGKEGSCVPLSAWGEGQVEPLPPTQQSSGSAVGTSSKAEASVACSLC
Chain of rat IP (P43253 whole entry): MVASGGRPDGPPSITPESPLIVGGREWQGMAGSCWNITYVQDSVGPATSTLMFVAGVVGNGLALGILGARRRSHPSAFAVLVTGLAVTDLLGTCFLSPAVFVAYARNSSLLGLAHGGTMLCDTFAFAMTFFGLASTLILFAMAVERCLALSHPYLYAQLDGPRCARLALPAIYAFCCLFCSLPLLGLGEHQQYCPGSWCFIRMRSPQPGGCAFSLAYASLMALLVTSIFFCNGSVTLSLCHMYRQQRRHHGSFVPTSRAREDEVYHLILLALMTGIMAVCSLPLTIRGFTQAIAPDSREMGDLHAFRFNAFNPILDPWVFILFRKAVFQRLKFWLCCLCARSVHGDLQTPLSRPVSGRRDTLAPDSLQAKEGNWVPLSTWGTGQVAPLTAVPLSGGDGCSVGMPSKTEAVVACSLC
Chain of CYP 3A4 (P08684 whole entry): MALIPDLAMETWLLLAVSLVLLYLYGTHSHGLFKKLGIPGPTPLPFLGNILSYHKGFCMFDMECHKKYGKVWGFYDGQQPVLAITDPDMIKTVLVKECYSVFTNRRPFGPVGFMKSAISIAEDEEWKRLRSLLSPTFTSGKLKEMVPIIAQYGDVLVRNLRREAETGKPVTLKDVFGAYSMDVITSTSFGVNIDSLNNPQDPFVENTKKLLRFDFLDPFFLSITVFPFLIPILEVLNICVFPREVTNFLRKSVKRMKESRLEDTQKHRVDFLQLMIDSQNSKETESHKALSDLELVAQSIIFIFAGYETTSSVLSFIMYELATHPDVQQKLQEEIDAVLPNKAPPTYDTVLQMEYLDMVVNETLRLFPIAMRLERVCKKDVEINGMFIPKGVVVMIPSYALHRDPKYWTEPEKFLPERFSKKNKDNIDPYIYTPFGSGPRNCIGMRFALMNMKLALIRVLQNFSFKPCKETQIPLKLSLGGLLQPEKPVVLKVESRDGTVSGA
Chain of CYP 1A2 (P05177 whole entry): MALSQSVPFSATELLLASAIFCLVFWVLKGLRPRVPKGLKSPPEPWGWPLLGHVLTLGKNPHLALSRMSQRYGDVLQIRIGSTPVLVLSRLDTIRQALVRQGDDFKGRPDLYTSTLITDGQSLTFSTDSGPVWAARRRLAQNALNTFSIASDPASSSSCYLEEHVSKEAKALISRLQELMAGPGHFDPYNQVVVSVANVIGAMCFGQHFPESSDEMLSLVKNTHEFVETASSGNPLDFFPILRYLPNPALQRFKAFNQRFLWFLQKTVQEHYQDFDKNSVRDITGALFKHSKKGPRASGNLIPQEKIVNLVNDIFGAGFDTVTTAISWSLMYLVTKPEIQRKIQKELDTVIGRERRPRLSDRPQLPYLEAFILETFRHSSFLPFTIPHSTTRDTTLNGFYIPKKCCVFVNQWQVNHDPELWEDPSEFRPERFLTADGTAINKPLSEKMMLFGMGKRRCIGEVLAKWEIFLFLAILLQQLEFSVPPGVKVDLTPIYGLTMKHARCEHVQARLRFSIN

## O=C(O)COC[C@H]1CC[C@H](COC(=O)N(c2ccccc2)c2ccc(Cl)cc2)CC1 [5c, Sodium 2-(((1r,4r)-4-(((4-Chlorophenyl)(phenyl)carbamoyloxy)methyl)cyclohexyl)methoxy)acetate]
[1]
  Emax: 52%
  EC50: 850 nM
  DP1 % I.A: 52%
[2]
  half-life: > 1 h
[3]
  IC50: > 50000 nM
[4]
  IC50: > 50000 nM
[5]
  Efficacy (% vs. Iloprost) [95% CI], primary human PASMC cAMP: 65 [55, 75] %
[6]
  agonist activity at EP2: no significant agonist activity
[6]; cAMP HTRF agonist assay
  EC50: > 10000 nM
[7]; CHO-K1, read-out: hIP % IA
  Emax: 85%
[8]
  EC50: 530 nM
  Emax: 88%
[9]
  Efficacy (% vs. Iloprost) [95% CI], recombinant IP receptor cAMP: 67 [64, 71] %

## O=C(O)COC[C@H]1CC[C@H](COC(=O)N(c2ccccc2)c2cccc(F)c2)CC1 [5g, 2-(((1r,4r)-4-(((3-Fluorophenyl)(phenyl)carbamoyloxy)methyl)cyclohexyl)methoxy)acetic Acid]
[1]
  Emax: 61%
  EC50: 2760 nM
[2]
  half-life: > 1 h
[10]
  Ki: 2.6 nM
[3]
  IC50: > 50000 nM
[4]
  IC50: > 50000 nM
[6]
  agonist activity at EP2: no significant agonist activity
[7]; CHO-K1; read-out: hIP % IA
  Emax: 85%
[7]; HTRF (cAMP) human IP receptor assay; mean of at least three determinations
  EC50: 8.7 nM
[8]
  EC50: 284 nM
  Emax: 83%

## CC#CCC(C)[C@H](O)/C=C/[C@@H]1[C@H]2C/C(=C/CCCC(=O)O)C[C@H]2C[C@H]1O (stereo partly drawn) [iloprost]
[1]
  Emax: 42%
  EC50: 147 nM
  DP1 % I.A: 42%
[10]
  Ki: 1.6 nM
[5]
  Efficacy (% vs. Iloprost) [95% CI], primary human PASMC cAMP: 100%
[5]; Homo sapiens, PASMC, n = 8, read-out: EC50 [95% CI], primary human PASMC cAMP
  EC50: 2.9 nM
[6]; cAMP HTRF agonist assay
  EC50: 144 nM
  EP2 % I.A: 110%
[7]; CHO-K1, read-out: hIP % IA
  Emax: 101%
[8]
  EC50: 0.69 nM
  Emax: 99%
[9]
  Efficacy (% vs. Iloprost) [95% CI], recombinant IP receptor cAMP: 100%
